In the PolyMetriX glass transition set:
± gives the standard deviation of the reports.

| glass transition temperature [°C] | SMILES |
| --- | --- |
| 247.50 ± 6.6 | *c1ccc(Oc2ccc(Oc3ccc(N4C(=O)c5ccc(Oc6ccc7c(c6)C(=O)N(*)C7=O)cc5C4=O)cc3)cc2)cc1 (repeat unit) |
| 159.30 | *Oc1ccc(OC(=O)c2ccc(C(*)=O)cc2)cc1C(F)(F)F (repeat unit) |
| 69.00 | *CC(*)c1ccccc1C(=O)OCCN(C)C (repeat unit) |
| 70.00 | *CCCCOC(=O)c1ccc(-c2ccc(C(=O)O*)cc2)cc1 (repeat unit) |
| 350.00 | *c1ccc(S(=O)(=O)c2ccc(-n3c(=O)c4cc5c(=O)n(*)c(=O)c5cc4c3=O)cc2)cc1 (repeat unit) |
| 403.00 | *c1ccc2cc(-c3nc4ccc(-c5ccc6nc(*)[nH]c6c5)cc4[nH]3)ccc2c1 (repeat unit) |
| 127.00 | *CCCCCCN1C(=O)c2ccc(C(=O)c3ccc4c(c3)C(=O)N(*)C4=O)cc2C1=O (repeat unit) |
| 25.00 | *O[Si](*)(C)CCCCCCCCCCCOc1ccc(C(=O)OC/C=C(\C)CCC=C(C)C)cc1 (repeat unit) |
| 278.00 | *Oc1ccc(C2(c3ccc(OC(*)=O)cc3)c3cc(N(C)C)ccc3-c3ccc([N+](=O)[O-])cc32)cc1 (repeat unit) |
| 13.00 | *CCCCCCOC(=O)c1ccc(C(=O)O*)cc1 (repeat unit) |
| 199.00 | */C=C(/c1ccc(*)cc1)c1ccc(C(F)(F)F)cc1 (repeat unit) |
| 155.00 | *c1ccc(Oc2ccc(C(c3ccc(Oc4ccc(-c5ccc(*)s5)cc4C(F)(F)F)cc3)(C(F)(F)F)C(F)(F)F)cc2)c(C(F)(F)F)c1 (repeat unit) |
| 87.10 | *CC(*)(C)C(=O)OCCCCCCCCCCOc1ccc(C#Cc2cc(OC)c(/C=C/c3ccncc3)cc2OC)cc1 (repeat unit) |
| 252.00 | *C(=O)c1ccc2c(c1)C(=O)N(c1ccc(Oc3ccc(C(=O)c4ccc(Oc5ccc(N6C(=O)c7ccc(*)cc7C6=O)cc5)cc4)cc3)cc1)C2=O (repeat unit) |
| -4.60 | *CCC[Si](*)(C)O[Si](C)(C)CCCOc1ccc(-c2ccc(C#N)cc2)cc1 (repeat unit) |
| 231.00 | *c1cccc(S(=O)(=O)c2cccc(N3C(=O)c4ccc(Oc5ccc(Sc6ccc(Oc7ccc8c(c7)C(=O)N(*)C8=O)cc6)cc5)cc4C3=O)c2)c1 (repeat unit) |
| 168.00 | *c1cccc(OCCCCCOc2cccc(N3C(=O)c4ccc(-c5cccc6c5C(=O)N(*)C6=O)cc4C3=O)c2)c1 (repeat unit) |
| 251.00 | *c1ccc(Oc2ccc(N3C(=O)c4ccc(Oc5ccc6c(c5)C(=O)N(*)C6=O)cc4C3=O)cc2Br)c(Br)c1 (repeat unit) |
| 40.00 | *CCCCCCCCCCCCOc1ccc(C(C)Cc2ccc(-c3ccc(O*)cc3)cc2)cc1 (repeat unit) |
| 75.00 | *Oc1ccc(CC(NC(=O)CCc2ccc(OC(=O)CCC(*)=O)cc2)C(=O)OC(C)CC)cc1 (repeat unit) |
| -8.00 | *CCOC(=O)CCCCCCCCCCC(=O)OCCOC(=O)c1ccc(C(=O)O*)cc1 (repeat unit) |
| 185.00 | *CCCCCCCCCCCCCCc1ccc(-c2c(-c3ccccc3)cc(-c3ccc(-c4cc(-c5ccccc5)c(-c5ccc(*)cc5)c(-c5ccccc5)c4-c4ccccc4)cc3)c(-c3ccccc3)c2-c2ccccc2)cc1 (repeat unit) |

The next lines start with the molecule.

| SMILES | glass transition temperature [°C] |
| --- | --- |
| *c1ccc(Cc2ccc(N3C(=O)c4ccc([Si](C)(C)O[Si](C)(C)c5ccc6c(c5)C(=O)N(*)C6=O)cc4C3=O)cc2)cc1 (repeat unit) | 232.00 |
| *CCN(CCOC(=O)Nc1ccc(C)c(NC(=O)O*)c1)c1ccc(/N=N/c2ccc(/C=C/c3nc4ccc([N+](=O)[O-])cc4n3CC)cc2)cc1 (repeat unit) | 171.00 |
| *CCOCCOCCOCCOc1ccc(/C=C(\C)c2ccc(O*)cc2)cc1 (repeat unit) | 7.50 |
| *Oc1ccc(NC(=O)c2cc(NC(=O)c3ccncc3)cc(C(=O)Nc3ccc(*)cc3)c2)cc1 (repeat unit) | 305.00 |
| *Oc1ccc(-c2ccc(OC(=O)Nc3cccc(P(=O)(c4ccccc4)c4cccc(NC(*)=O)c4)c3)cc2)cc1 (repeat unit) | 72.00 |
| *CCc1ccc(NC(=O)c2cccc(C(=O)Nc3ccc(CCOC(=O)c4cccc(C(=O)O*)c4)cc3)c2)cc1 (repeat unit) | 142.00 |
| *Oc1ccc(/C(C)=N/c2ccc(/N=C(\C)c3ccc(Oc4ccc(C(C)(C)c5ccc(*)cc5)cc4)cc3)cc2)cc1 (repeat unit) | 161.00 |
| *CC(*)(C)C(=O)Oc1c(C(C)C)cccc1C(C)C (repeat unit) | 198.00 |
| *c1ccc(OCCOc2cccc(N3C(=O)c4ccc(Oc5ccc6c(c5)C(=O)N(*)C6=O)cc4C3=O)c2)cc1 (repeat unit) | 178.50 |
| *CC(*)(C)C(=O)OCC1COC(=O)O1 (repeat unit) | 124.00 |
| *Oc1cccc(OC(=O)c2cccc(C(*)=O)c2)c1 (repeat unit) | 147.00 |
| *CCCNC(=O)CCCCC(=O)NCCCN(*)C (repeat unit) | 5.00 |
| *c1ccc2c(c1)C(=O)N(c1ccc(NC(=O)C(F)(F)C(F)(F)C(F)(F)C(F)(F)C(F)(F)C(F)(F)C(=O)Nc3ccc(N4C(=O)c5ccc(C(*)(C(F)(F)F)C(F)(F)F)cc5C4=O)cc3)cc1)C2=O (repeat unit) | 265.00 |
| *CCCC(C)(C)CNC(=O)CCCCC(=O)N* (repeat unit) | 77.00 |
| *Oc1ccc(C(C)(C)c2ccc(OC(=O)NC(=O)c3cc(C(=O)NC(*)=O)cc(C(C)(C)C)c3)cc2)cc1 (repeat unit) | 123.50 |
| *Oc1ccc(CNC(=O)c2ccc(C(=O)NCc3ccc(OC4COC5C(*)COC45)cc3)cc2)cc1 (repeat unit) | 122.00 |
| *Oc1ccc(CC(NC(=O)CCc2ccc(OC(=O)CCCC(*)=O)cc2)C(=O)OC)cc1 (repeat unit) | 76.00 |
| *CCCCCCCCCCOC(=O)CC/C=C/CCC(=O)O* (repeat unit) | -15.00 |
| *Oc1ccc(Oc2ccc(C(=O)c3ccc(*)cc3)cc2)cc1-c1cc(C(F)(F)F)cc(C(F)(F)F)c1 (repeat unit) | 146.00 |
| *Oc1ccc(OC(=O)Oc2ccc(C(C)(C)c3ccc(OC(*)=O)cc3)cc2)cc1 (repeat unit) | 97.00 |
| *O[Si](C)(C)O[Si](*)(C)c1c(F)c(F)c(F)c(F)c1F (repeat unit) | -65.00 |
| *CCCNC(=O)C(Cc1ccccc1)NC(=O)CCCCCCCCC(=O)NC(Cc1ccccc1)C(=O)NCCCOCCOCCO* (repeat unit) | 44.00 |
| *CC(*)(C)C(=O)OC(OCC)C(F)(F)F (repeat unit) | 60.00 |

| SMILES | glass transition temperature [°C] |
| --- | --- |
| *CC(O)COc1ccc(C(C)(C)c2ccc(OCC(O)COc3ccc(S(=O)(=O)c4ccc(O*)cc4)cc3)cc2)cc1 (repeat unit) | 140.00 |
| */C(C)=C(/*)SCCCCCCCCCC (repeat unit) | 60.00 |
| *C([2H])([2H])C(*)([2H])C([2H])=C([2H])[2H] (repeat unit) | 1.00 |
| *CCCCCC(*)CCC (repeat unit) | -68.00 |
| *CCCCCCCNC(=S)N* (repeat unit) | 52.00 |
| *CCCCCCCC(=O)OC1COC(*)OC1 (repeat unit) | 6.50 |
| *c1ccc(Sc2ccc(Sc3ccc(N4C(=O)c5ccc(Oc6ccc7c(c6)C(=O)N(*)C7=O)cc5C4=O)cc3)s2)cc1 (repeat unit) | 218.00 |
| */C(C)=C(/*)[Si](C)(C)C[Si](C)(C)C (repeat unit) | 200.00 |
| *Nc1ccc(Cc2ccc(NC(=O)NCCCCCCCCCNC(*)=O)cc2)cc1 (repeat unit) | -50.00 |
| *c1ccc2oc(-c3ccc(Oc4ccc(-c5nc6cc(C(*)(c7ccccc7)C(F)(F)F)ccc6o5)cc4)cc3)nc2c1 (repeat unit) | 299.00 |
| *CC(C)(C)COC(=O)c1ccc(/C=C/c2ccc(C(=O)O*)cc2)cc1 (repeat unit) | 80.00 |
| *Oc1ccc(/C=C2\CC/C(=C\c3ccc(OC(=O)c4ccc(/N=C/c5ccc(/C=N/c6ccc(C(*)=O)cc6)cc5)cc4)cc3)C2=O)cc1 (repeat unit) | 205.00 |
| *CCCCCC(=O)Oc1ccc(OC(=O)CCCCCn2c(=O)c3cc4c(=O)n(*)c(=O)c4cc3c2=O)c(-c2ccccc2)c1 (repeat unit) | 82.00 |
| *Nc1cc(NC(=O)c2ccc(C(*)=O)cc2)cc(C(=O)OCCOC(=O)/C=C/c2ccc(N(C)C)cc2)c1 (repeat unit) | 198.00 |
| *CCOC(=O)c1ccc(C(=O)OCCOc2ccc(C(C)(C)c3ccc(O*)cc3)cc2)cc1 (repeat unit) | 83.00 |
| *ON(C(F)(F)F)C(F)(Cl)C(*)(F)F (repeat unit) | -50.00 |
| *CCN(*)C(=O)c1ccc(F)c(F)c1 (repeat unit) | 101.00 |
| *Oc1cccc(NC(=O)c2cccc(C(=O)Nc3ccc(*)cc3)c2)c1 (repeat unit) | 240.00 |
| *CCOC(=O)c1ccc(C(=O)O*)c2ccccc12 (repeat unit) [Poly(ethylene- 1 ,4-naphthalenedicarboxylate) ] | 64 ± 1.2 |
| *CCOC(=O)Nc1ccc(C)c(NC(=O)OCCOc2cc([N+](=O)[O-])ccc2/N=N/c2cn(*)c3ccccc23)c1 (repeat unit) | 150.00 |
| *c1ccc(N2C(=O)c3ccc(Oc4ccc(Oc5ccc(P(=O)(c6ccccc6)c6ccc(Oc7ccc(Oc8ccc9c(c8)C(=O)N(*)C9=O)cc7)cc6)cc5)cc4)cc3C2=O)cc1 (repeat unit) | 220.00 |
| */C(C)=C(/*)[Si](C)(C)C (repeat unit) | 75.00 |
| */C(=C/c1cc(OC)c(/C=C(\c2ccccc2)c2ccc(-c3ccc(*)cc3)cc2)cc1OC)c1ccccc1 (repeat unit) | 223.00 |
